Experimental findings from patent US20220220106A1, “QUINOLINE COMPOUNDS AND PHARMACEUTICAL COMPOSITIONS AND USES THEREOF” (Academy of Military Medical Sciences, priority 2019, published 2022) are described below.

Some results are limits rather than exact numbers.

In data set [1] the test system is Enterovirus 71 (EV71) H strain. As to the kind of experiment: In vitro anti-EV71 activity (antiviral activity in RD cells, CellTiter-Glo). It counts as cell-based. The following applies: for IC50: Enterovirus A, 96 h, EV71 H strain, RD cells, 4 days, CellTiter-Glo, read-out: IC50; for in vitro anti-EV71 activity, in words: EV71, RD cells. How it is done:
According to the mass and molecular weight of the compound to be tested, the compound to be tested was dissolved to 100 mM (mmol/L) with DMSO.
Detection of Antiviral Activity:
(1) First, the compound to be tested was diluted to 800 μM with cell maintenance solution (DMEM+2% FBS, Gibco, catalog numbers: 11995-065, 1600-044), and three-fold gradient dilution was performed to prepare 10 concentrations in total. The diluted compound was added to a 96-well plate with white wall and transparent bottom, 50 μl per well. To both the cell control group and the virus control group, an equal volume of the cell maintenance solution was added.
(2) EV71 virus (purchased from ATCC) was taken out from the −80° C. refrigerator and equilibrated to room temperature.
(3) The virus seed was diluted with a virus growth solution (DMEM+2% FBS, Gibco, catalog numbers: 11995-065, 1600-044) to 100TCID50, the diluted virus seed was added to the 96-well plate of (1), with […] per well. The same volume of the virus growth solution was added to the cell control group.
(4) RD cells (purchased from ATCC) were inoculated at a concentration of 1*10^5/mL into the 96-well plate of (1), with 100 μL per well, to reach a final volume of 200 μL per well. The final concentration of drug was 0.25 times the initial concentration.
(5) RD cells were cultured at 37° C. for 4 days for testing.
(6) The Buffer of CellTiter-Glo® luminescent cell viability assay reagent (Promega) was mixed with the substrate in the dark to prepare a working solution.
(7) The culture medium in the plate was discarded, the plate was dried by patting, 100 μL of the detection reagent was added to each well, and the 96-well plate was shaken on an orbital shaker for 4 minutes to induce cell lysis. After keeping in the dark and subjecting to signal stabilization for 15 minutes, the chemiluminescence unit was detected by using MD5 microplate reader (Molecular Devices), and the plate reading program was performed according to the CellTiter-Glo preset program.
The inhibition rate-concentration curve was fitted to S-curve by using origin8.0 software to calculate the IC50 value of the compound to be tested.
(§1) The formula for calculating the inhibition rates of drug at different dilution degrees was as follows: inhibition rate (%)=(average value of cell control group−value of experimental group)/(average value of cell control group−minimum value of experimental group)*100
(§2) The inhibition rate-concentration curve was fitted to S-curve by using origin8.0 software, and the IC50 value of the compound to be tested was calculated. The same method was used to calculate the TD50 value, and the selection index SI=TD50/IC50 was calculated according to the half maximal inhibitory concentration IC50 and the median toxic dose TD50.
Background: Cellular ATP, detected with luciferase, serves as a proxy for viable cell number.

For the next data set, the system named is RD cells. Nature of the data set: Detection of cytotoxicity in RD cells (CellTiter-Glo). It counts as cell-based. The following applies: 4 days, CellTiter-Glo, median toxic dose. As for the experimental part:
Detection of Cytotoxicity:
(1) The compound to be tested was diluted to a concentration of 400 μM with the cell maintenance solution, and 3-fold gradient dilution was carried out to obtain 10 concentrations in total.
(2) The diluted compound was added to a 96-well plate with white wall and transparent bottom, with 100 μL per well. An equal volume of the cell maintenance solution was added to the cell control group.
(3) RD cells were inoculated into the above 96-well plate at a concentration of 1*10^5/mL, with 100 μL per well, to reach a final volume of 200 μL per well, and the final concentration of drug was 0.5 times the pretreatment concentration.
(4) The RD cells were cultured at 37° C. for 4 days for testing.
(5) The Buffer of CellTiter-Glo® luminescent cell viability assay reagent was mixed with the substrate in the dark to prepare a working solution.
(6) The culture medium in the plate was discarded, the plate was dried by patting, 100 μL of the detection reagent was added to each well, and the 96-well plate was shaken on an orbital shaker for 4 minutes to induce cell lysis. After keeping in the dark and subjecting to signal stabilization for 15 minutes, the chemiluminescence unit was detected, and the plate reading program was performed according to the CellTiter-Glo preset program.
as §1, §2

For `CC(C)(C)c1ccc(Nc2ccc3ncc4ccc(=O)n(-c5cccc(C(F)(F)F)c5)c4c3c2)cc1` [HTL-6-18, 9-(4-tert-butylphenyl)imino-2-oxo-1-[3-(trifluoromethyl)phenyl]-1,2-dihydrobenzo[h][1,6]naphthyridine], the melting point (as a rule, the temperature, or range, at which the solid turns liquid) is 141 to 142 °C. The IC50 (in general, the concentration that gives 50% inhibition) in data set [1] is > 200 µM. Besides, in the data set with RD cells, the TD50 turned out to be 7.04 ± 0.68 µM.
Compound `Cc1ccc(Nc2ccc3ncc4ccc(=O)n(-c5cccc(C(F)(F)F)c5)c4c3c2)cn1` [HTL-6-19, 9-[3-(6-methylpyridyl)]imino-2-oxo-1-[3-(trifluoromethyl)phenyl]-1,2-dihydrobenzo[h][1,6]naphthyridine] came in with a melting point of 234 to 236 °C. In data set [1], the IC50 was > 200 µM. Besides, the TD50 in the data set on RD cells was 22.62 ± 2.15 µM.
The compound `O=c1ccc2cnc3ccc(Nc4ccc(F)nc4)cc3c2n1-c1cccc(C(F)(F)F)c1` [HTL-6-20, 9-[3-(6-fluoropyridyl)]imino-2-oxo-1-[3-(trifluoromethyl)phenyl]-1,2-dihydrobenzo[h][1,6]naphthyridine] had a melting point of 232 to 233 °C. Also, the IC50 in data set [1] is > 200 µM. The compound also came in with a TD50 in the data set with RD cells of 59.31 ± 3.98 µM.
Take `O=c1ccc2cnc3ccc(Nc4ccc(Cl)nc4)cc3c2n1-c1cccc(C(F)(F)F)c1` [HTL-6-21, 9-[3-(6-chloropyridyl)]imino-2-oxo-1-[3-(trifluoromethyl)phenyl]-1,2-dihydrobenzo[h][1,6]naphthyridine]: the melting point is 137 to 138 °C. For the same compound, the IC50 in data set [1] is > 200 µM. Besides, in the data set on RD cells, the TD50 is 20.75 ± 2.11 µM.
The corresponding values for `N#Cc1ccc(Nc2ccc3ncc4ccc(=O)n(-c5cccc(C(F)(F)F)c5)c4c3c2)cc1` [HTL-6-22, 9-(4-cyanophenyl)imino-2-oxo-1-[3-(trifluoromethyl)phenyl]-1,2-dihydrobenzo[h][1,6]naphthyridine] are 259 to 260 °C, > 200 µM and 6.95 ± 0.86 µM.
As to `O=c1ccc2cnc3ccc(Nc4ccc(F)cc4)cc3c2n1-c1cccc(C(F)(F)F)c1` [HTL-6-23, 9-(4-fluorophenyl)imino-2-oxo-1-[3-(trifluoromethyl)phenyl]-1,2-dihydrobenzo[h][1,6]naphthyridine], the melting point is 176 to 179 °C. Also, the IC50 in data set [1] was > 200 µM. The TD50 with RD cells was found to be 7.22 ± 0.47 µM.
Taken in the same sequence, the figures for `Cc1cc(Nc2ccc3ncc4ccc(=O)n(-c5cccc(C(F)(F)F)c5)c4c3c2)ccc1F` [HTL-6-24, 9-[(4-fluoro-3-methyl)phenyl]imino-2-oxo-1-[3-(trifluoromethyl)phenyl]-1,2-dihydrobenzo[h][1,6]naphthyridine] were 210 to 211 °C, > 200 µM and 7.2 ± 0.33 µM.
Taken in the same sequence, the figures for `O=c1ccc2cnc3ccc(Nc4ccc(Cl)cc4)cc3c2n1-c1cccc(C(F)(F)F)c1` [HTL-6-25, 9-(4-chlorophenyl)imino-2-oxo-1-[3-(trifluoromethyl)phenyl]-1,2-dihydrobenzo[h][1,6]naphthyridine] were 212 to 213 °C, > 200 µM and 4.56 ± 0.26 µM.
`COc1ccc(Nc2ccc3ncc4ccc(=O)n(-c5cccc(C(F)(F)F)c5)c4c3c2)cc1` [HTL-6-26, 9-(4-methoxyphenyl)imino-2-oxo-1-[3-(trifluoromethyl)phenyl]-1,2-dihydrobenzo[h][1,6]naphthyridine] returned a melting point of 138 to 140 °C. In addition, the IC50 in data set [1] is > 200 µM. Further, the TD50 in the data set on RD cells is >200 µM.
For `CC(=O)Nc1ccc(Nc2ccc3ncc4ccc(=O)n(-c5cccc(C(F)(F)F)c5)c4c3c2)cc1` [HTL-6-27, 9-(4-acetylaminophenyl)imino-2-oxo-1-[3-(trifluoromethyl)phenyl]-1,2-dihydrobenzo[h][1,6]naphthyridine], the melting point was 175 to 177 °C. In data set [1], the “in vitro anti-EV71 activity, in words” value is given as “moderate activity” and the IC50 turned out to be 7.14 ± 3.21 µM. The TD50 in the data set on RD cells was 10.65 ± 0.57 µM.
On to `Nc1cncc(Nc2ccc3ncc4ccc(=O)n(-c5cccc(C(F)(F)F)c5)c4c3c2)n1` [HTL-6-28, 9-[2-(6-aminopyrazinyl)]imino-2-oxo-1-[3-(trifluoromethyl)phenyl]-1,2-dihydrobenzo[h][1,6]naphthyridine], for which the melting point lay within 192 to 194 °C. In data set [1], the “in vitro anti-EV71 activity, in words” value is reported as “moderate activity” and the IC50 was determined as 3.7 ± 0.03 µM. Also, in the data set with RD cells, the TD50 was 8.67 ± 0.97 µM.
On to `Nc1cncc(Nc2ccc3ncc4ccc(=O)n(-c5cccc(C(F)(F)F)c5)c4c3c2)c1` [HTL-6-29, 9-[3-(5-aminopyridyl)]imino-2-oxo-1-[3-(trifluoromethyl)phenyl]-1,2-dihydrobenzo[h][1,6]naphthyridine], for which the melting point was in the range of 156 to 158 °C. For the same compound, in data set [1], the “in vitro anti-EV71 activity, in words” value is given as “moderate activity” and the IC50 is 1.75 ± 0.41 µM. The compound also had a TD50 in the data set with RD cells of 28.65 ± 1.67 µM.
Compound `N#CC/C=C/c1ccc2ncc3oc(=O)n(-c4cccc(C(F)(F)F)c4)c3c2c1` [HTL-6-31, (E)-8-(3-cyano-propenyl)-1-[3-(trifluoromethyl)phenyl]oxazolo[5,4-c]quinolin-2(1H)-one] yielded a melting point of 177 to 179 °C. In data set [1], the IC50 was > 200 µM. For the same compound, the TD50 with RD cells stood at 9.20 ± 2.34 µM.
In turn, `N#C/C=C/c1ccc2ncc3oc(=O)n(-c4cccc(C(F)(F)F)c4)c3c2c1` [HTL-6-32, (E)-8-(2-cyano-vinyl)-1-[3-(trifluoromethyl)phenyl]oxazolo[5,4-c]quinolin-2(1H)-one] came in with a melting point of 235 to 237 °C. Also, the IC50 in data set [1] is > 200 µM. For the same compound, the TD50 with RD cells is >200 µM.
Compound `COC(=O)/C=C/c1ccc2ncc3oc(=O)n(-c4cccc(C(F)(F)F)c4)c3c2c1` [HTL-6-33, (E)-8-(2-methoxycarbonyl-vinyl)-1-[3-(trifluoromethyl)phenyl]oxazolo[5,4-c]quinolin-2(1H)-one] yielded a melting point of 243 to 245 °C. In addition, the IC50 in data set [1] is > 200 µM. Further, in the data set on RD cells, the TD50 is 71.99 ± 0.78 µM.
The compound `CC(C)(C)OC(=O)/C=C/c1ccc2ncc3oc(=O)n(-c4cccc(C(F)(F)F)c4)c3c2c1` [HTL-6-35, (E)-8-(2-tert-butoxycarbonyl-vinyl)-1-[3-(trifluoromethyl)phenyl]oxazolo[5,4-c]quinolin-2(1H)-one] came in with a melting point of 186 to 187 °C. Besides, the IC50 in data set [1] is > 200 µM. The compound further had a TD50 with RD cells of 76.02 ± 11.52 µM.
The compound `CCOC(=O)CC/C=C/c1ccc2ncc3oc(=O)n(-c4cccc(C(F)(F)F)c4)c3c2c1` [HTL-6-38, (E)-8-(4-ethoxycarbonyl-but-1-enyl)-1-[3-(trifluoromethyl)phenyl]oxazolo [5,4-c]quinolin-2(1H)-one] returned a melting point of 162 to 164 °C. For the same compound, the IC50 in data set [1] was > 200 µM. Also, the TD50 in the data set with RD cells came to 22.74 ± 0.01 µM.
`O=C(Nc1ccc(-c2ccc3ncc4oc(=O)n(-c5cccc(C(F)(F)F)c5)c4c3c2)cn1)OCc1ccccc1` [HTL-7-23, 8-[3-(6-benzyloxyamido)pyridyl]-1-[3-(trifluoromethyl)phenyl]oxazolo[5,4-c]quinolin-2(1H)-one] showed a melting point of 284 to 286 °C. In data set [1], the IC50 was > 200 µM. In addition, in the data set on RD cells, the TD50 is >200 µM.
